Values joined by “and” are separate entries in the source; they are usually repeats but may differ in a detail not shown here. Equal values may be shown once. Inconclusive results and toxic doses are left out.
Test system: L1210 leukemia ip in BDF1 mice, survival T/C
Test: NCI In Vivo Anticancer Drug Screen. Data for tumor model L1210 Leukemia (intraperitoneal) in B6D2F1 (BDF1) mice
Conditions: higher = longer survival
Outline: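 Value reflects the ratio of survival in compound-treated mice to survival in vehicle-treated controls, with both groups carrying the same transplanted tumor.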

For `COc1cc2cc3c4cc(OC)c(OC)cc4cc[n+]3c(C)c2cc1OC`, the T/C (endpoint: mean survival time, dose: 12.0 mg/kg/injection, schedule: Q01DX009 (ip), vehicle: saline) was 100 % of control, the T/C (endpoint: mean survival time, dose: 12.5 mg/kg/injection, schedule: Q01DX009 (ip), vehicle: water) was 117 % of control and the T/C (endpoint: mean survival time, dose: 16.0 mg/kg/injection, schedule: Q03HX008 (ip), vehicle: saline) was 122 % of control. For the same molecule, the T/C (endpoint: mean survival time, dose: 16.0 mg/kg/injection, schedule: Q03HX016 (ip), vehicle: saline) was 122 % of control, the T/C (endpoint: mean survival time, dose: 25.0 mg/kg/injection, schedule: Q01DX009 (ip), vehicle: saline) was 117 % of control and the T/C (endpoint: mean survival time, dose: 32.0 mg/kg/injection, schedule: Q03HX008 (ip), vehicle: saline) was 118 % of control. The T/C (endpoint: mean survival time, dose: 32.0 mg/kg/injection, schedule: Q03HX024 (ip), vehicle: saline) was 124 % of control, the T/C (endpoint: mean survival time, dose: 50.0 mg/kg/injection, schedule: Q01DX009 (ip), vehicle: saline sonified) was 115 % of control and the T/C (endpoint: mean survival time, dose: 50.0 mg/kg/injection, schedule: Q04DX002 (ip), vehicle: saline) was 120 % of control. The T/C (endpoint: mean survival time, dose: 50.0 mg/kg/injection, schedule: Q04DX003 (ip), vehicle: saline) was 116 % of control, the T/C (endpoint: mean survival time, dose: 64.0 mg/kg/injection, schedule: Q03HX008 (ip), vehicle: saline) was 122 % of control and the T/C (endpoint: mean survival time, dose: 100.0 mg/kg/injection, schedule: Q01DX009 (ip), vehicle: saline sonified) was 115 % of control. The T/C (endpoint: mean survival time, dose: 100.0 mg/kg/injection, schedule: Q01DX009 (ip), vehicle: saline) was 110 % of control and 119 % of control, the T/C (endpoint: mean survival time, dose: 100.0 mg/kg/injection, schedule: Q04DX002 (ip), vehicle: saline) was 123 % of control and the T/C (endpoint: mean survival time, dose: 100.0 mg/kg/injection, schedule: Q04DX003 (ip), vehicle: saline) was 108 % of control. For the same molecule, the T/C (endpoint: mean survival time, dose: 128.0 mg/kg/injection, schedule: Q01DX001 (ip), vehicle: saline) was 117 % of control, the T/C (endpoint: mean survival time, dose: 128.0 mg/kg/injection, schedule: Q01DX009 (ip), vehicle: saline) was 120 % of control and the T/C (endpoint: mean survival time, dose: 128.0 mg/kg/injection, schedule: Q03HX008 (ip), vehicle: saline) was 124 % of control. The T/C (endpoint: mean survival time, dose: 128.0 mg/kg/injection, schedule: Q04DX003 (ip), vehicle: saline) was 114 % of control, the T/C (endpoint: mean survival time, dose: 128.0 mg/kg/injection, schedule: Q08DX002 (ip), vehicle: saline) was 122 % of control and the T/C (endpoint: mean survival time, dose: 200.0 mg/kg/injection, schedule: Q01DX009 (ip), vehicle: saline sonified) was 112 % of control. The T/C (endpoint: mean survival time, dose: 200.0 mg/kg/injection, schedule: Q04DX002 (ip), vehicle: saline) was 120 % of control, the T/C (endpoint: mean survival time, dose: 256.0 mg/kg/injection, schedule: Q01DX001 (ip), vehicle: saline) was 117 % of control and the T/C (endpoint: mean survival time, dose: 256.0 mg/kg/injection, schedule: Q08DX002 (ip), vehicle: saline) was 118 % of control. The T/C (endpoint: mean survival time, dose: 400.0 mg/kg/injection, schedule: Q01DX009 (ip), vehicle: water) was 151 % of control, the T/C (endpoint: mean survival time, dose: 400.0 mg/kg/injection, schedule: Q04DX002 (ip), vehicle: saline) was 116 % of control and 118 % of control and the T/C (endpoint: mean survival time, dose: 400.0 mg/kg/injection, schedule: Q04DX003 (ip), vehicle: saline) was 120 % of control. For the same molecule, the T/C (endpoint: mean survival time, dose: 512.0 mg/kg/injection, schedule: Q01DX001 (ip), vehicle: saline) was 119 % of control, the T/C (endpoint: mean survival time, dose: 512.0 mg/kg/injection, schedule: Q08DX002 (ip), vehicle: saline) was 120 % of control and the T/C (endpoint: mean survival time, dose: 1024.0 mg/kg/injection, schedule: Q04DX003 (ip), vehicle: saline) was 106 % of control. For the same molecule, the T/C (endpoint: median survival time, dose: 16.0 mg/kg/injection, schedule: Q03HX008 (ip), vehicle: saline) was 122 % of control, the T/C (endpoint: median survival time, dose: 16.0 mg/kg/injection, schedule: Q03HX024 (ip), vehicle: saline) was 122 % of control and the T/C (endpoint: median survival time, dose: 32.0 mg/kg/injection, schedule: Q01DX009 (ip), vehicle: saline) was 122 % of control. For the same molecule, the T/C (endpoint: median survival time, dose: 50.0 mg/kg/injection, schedule: Q01DX009 (ip), vehicle: saline) was 105 % of control and 109 % of control, the T/C (endpoint: median survival time, dose: 62.5 mg/kg/injection, schedule: Q01DX009 (ip), vehicle: saline) was 120 % of control and the T/C (endpoint: median survival time, dose: 64.0 mg/kg/injection, schedule: Q01DX001 (ip), vehicle: saline) was 122 % of control. The T/C (endpoint: median survival time, dose: 64.0 mg/kg/injection, schedule: Q01DX009 (ip), vehicle: saline) was 122 % of control, the T/C (endpoint: median survival time, dose: 64.0 mg/kg/injection, schedule: Q01DX009 (oral), vehicle: saline) was 100 % of control and the T/C (endpoint: median survival time, dose: 64.0 mg/kg/injection, schedule: Q01DX009 (sc), vehicle: saline) was 100 % of control. For the same molecule, the T/C (endpoint: median survival time, dose: 64.0 mg/kg/injection, schedule: Q03HX008 (ip), vehicle: saline) was 122 % of control, the T/C (endpoint: median survival time, dose: 64.0 mg/kg/injection, schedule: Q04DX003 (ip), vehicle: saline) was 122 % of control and the T/C (endpoint: median survival time, dose: 64.0 mg/kg/injection, schedule: Q08DX002 (ip), vehicle: saline) was 111 % of control. The T/C (endpoint: median survival time, dose: 125.0 mg/kg/injection, schedule: Q01DX009 (ip), vehicle: saline) was 120 % of control, the T/C (endpoint: median survival time, dose: 128.0 mg/kg/injection, schedule: Q01DX001 (ip), vehicle: saline) was 122 % of control and the T/C (endpoint: median survival time, dose: 128.0 mg/kg/injection, schedule: Q01DX009 (ip), vehicle: saline) was 122 % of control. For the same molecule, the T/C (endpoint: median survival time, dose: 128.0 mg/kg/injection, schedule: Q01DX009 (oral), vehicle: saline) was 105 % of control, the T/C (endpoint: median survival time, dose: 128.0 mg/kg/injection, schedule: Q01DX009 (sc), vehicle: saline) was 100 % of control and the T/C (endpoint: median survival time, dose: 128.0 mg/kg/injection, schedule: Q04DX003 (ip), vehicle: saline) was 122 % of control. For the same molecule, the T/C (endpoint: median survival time, dose: 128.0 mg/kg/injection, schedule: Q08DX002 (ip), vehicle: saline) was 122 % of control, the T/C (endpoint: median survival time, dose: 256.0 mg/kg/injection, schedule: Q01DX009 (oral), vehicle: saline) was 111 % of control and the T/C (endpoint: median survival time, dose: 256.0 mg/kg/injection, schedule: Q01DX009 (sc), vehicle: saline) was 94 % of control. For the same molecule, the T/C (endpoint: median survival time, dose: 256.0 mg/kg/injection, schedule: Q08DX002 (ip), vehicle: saline) was 122 % of control, the T/C (endpoint: median survival time, dose: 512.0 mg/kg/injection, schedule: Q01DX001 (ip), vehicle: saline) was 122 % of control and the T/C (endpoint: median survival time, dose: 512.0 mg/kg/injection, schedule: Q01DX009 (oral), vehicle: saline) was 100 % of control. The T/C (endpoint: median survival time, dose: 512.0 mg/kg/injection, schedule: Q01DX009 (sc), vehicle: saline) was 100 % of control, the T/C (endpoint: median survival time, dose: 512.0 mg/kg/injection, schedule: Q04DX003 (ip), vehicle: saline) was 122 % of control and the T/C (endpoint: median survival time, dose: 1024.0 mg/kg/injection, schedule: Q01DX009 (oral), vehicle: saline) was 88 % of control. The T/C (endpoint: median survival time, dose: 1024.0 mg/kg/injection, schedule: Q01DX009 (sc), vehicle: saline) was 100 % of control, the T/C (endpoint: median survival time, dose: 1024.0 mg/kg/injection, schedule: Q08DX002 (ip), vehicle: saline) was 122 % of control and the T/C (endpoint: median survival time, dose: 1600.0 mg/kg/injection, schedule: Q01DX009 (ip), vehicle: saline) was 90 % of control.

In the case of `O=C(O)c1nsnc1C(=O)O`, the T/C (endpoint: mean survival time, dose: 200.0 mg/kg/injection, schedule: Q01DX001 (ip), vehicle: saline) is reported as 102 % of control and the T/C (endpoint: mean survival time, dose: 400.0 mg/kg/injection, schedule: Q01DX001 (ip), vehicle: saline) is reported as 103 % of control.

With `N=C(N)/[N+]([O-])=N/O` the T/C (endpoint: mean survival time, dose: 8.0 mg/kg/injection, schedule: Q01DX001 (ip), vehicle: saline + alcohol) was 97 % of control, the T/C (endpoint: mean survival time, dose: 12.0 mg/kg/injection, schedule: Q01DX001 (ip), vehicle: saline + alcohol) was 100 % of control and the T/C (endpoint: mean survival time, dose: 18.0 mg/kg/injection, schedule: Q01DX001 (ip), vehicle: saline + alcohol) was 111 % of control. The T/C (endpoint: mean survival time, dose: 26.0 mg/kg/injection, schedule: Q01DX001 (ip), vehicle: saline + alcohol) was 98 % of control, the T/C (endpoint: mean survival time, dose: 40.0 mg/kg/injection, schedule: Q01DX001 (ip), vehicle: saline + alcohol) was 103 % of control and the T/C (endpoint: mean survival time, dose: 60.0 mg/kg/injection, schedule: Q01DX001 (ip), vehicle: saline + alcohol) was 95 % of control. The T/C (endpoint: mean survival time, dose: 90.0 mg/kg/injection, schedule: Q01DX001 (ip), vehicle: saline + alcohol) was 101 % of control, the T/C (endpoint: mean survival time, dose: 135.0 mg/kg/injection, schedule: Q01DX001 (ip), vehicle: saline + alcohol) was 100 % of control and the T/C (endpoint: mean survival time, dose: 200.0 mg/kg/injection, schedule: Q01DX001 (ip), vehicle: saline + alcohol) was 108 % of control.

`COc1cc(/C=C(\C#N)c2cccc3ccccc23)cc(OC)c1OC` was tested, and the T/C (endpoint: mean survival time, dose: 100.0 mg/kg/injection, schedule: Q04DX003 (ip), vehicle: Klucel (hydroxypropylcellulose) (HPC)) was 107 % of control, the T/C (endpoint: mean survival time, dose: 200.0 mg/kg/injection, schedule: Q04DX003 (ip), vehicle: Klucel (hydroxypropylcellulose) (HPC)) was 103 % of control and the T/C (endpoint: mean survival time, dose: 400.0 mg/kg/injection, schedule: Q04DX003 (ip), vehicle: Klucel (hydroxypropylcellulose) (HPC)) was 94 % of control.

In the case of `ClC(Cl)(Cl)c1cccc(-c2nc(NCCCN3CCCC3)nc(C(Cl)(Cl)Cl)n2)c1`, the T/C (endpoint: mean survival time, dose: 100.0 mg/kg/injection, schedule: Q01DX009 (ip), vehicle: Klucel (hydroxypropylcellulose) (HPC)) is reported as 102 % of control, the T/C (endpoint: mean survival time, dose: 200.0 mg/kg/injection, schedule: Q01DX009 (ip), vehicle: Klucel (hydroxypropylcellulose) (HPC)) is reported as 100 % of control and the T/C (endpoint: mean survival time, dose: 400.0 mg/kg/injection, schedule: Q01DX009 (ip), vehicle: Klucel (hydroxypropylcellulose) (HPC)) is reported as 86 % of control.

With `COc1ccccc1-n1c(O)c(N=Nc2ccccc2C)c(=O)n(-c2ccc(I)cc2)c1=S` the T/C (endpoint: mean survival time, dose: 37.5 mg/kg/injection, schedule: Q01DX001 (ip), vehicle: Klucel (hydroxypropylcellulose) (HPC)) was 89 % of control, the T/C (endpoint: mean survival time, dose: 75.0 mg/kg/injection, schedule: Q01DX001 (ip), vehicle: Klucel (hydroxypropylcellulose) (HPC)) was 92 % of control and the T/C (endpoint: mean survival time, dose: 150.0 mg/kg/injection, schedule: Q01DX001 (ip), vehicle: Klucel (hydroxypropylcellulose) (HPC)) was 97 % of control.
